Results: ChEMBL document CHEMBL1151524, “Synthesis and evaluation of pyrazolo[3,4-b]quinoline ribofuranosides and their derivatives as inhibitors of oncogenic Ras” (Bioorg Med Chem Lett, 1996)

Legend:
GTPase HRas [1] = molecular target: T1, GTPase HRas (Homo sapiens, UniProt P01112); assay: Inhibition of nucleotide exchange process of oncogenic Ras at concentration 50 uM
GTPase HRas [2] = molecular target: T1, GTPase HRas; assay: Inhibition of nucleotide exchange process of oncogenic Ras in vitro
GTPase HRas [3] = molecular target: T1, GTPase HRas; assay: In vitro for inhibition of nucleotide exchange process of oncogenic Ras

T1 sequence (P01112 whole entry, looked up): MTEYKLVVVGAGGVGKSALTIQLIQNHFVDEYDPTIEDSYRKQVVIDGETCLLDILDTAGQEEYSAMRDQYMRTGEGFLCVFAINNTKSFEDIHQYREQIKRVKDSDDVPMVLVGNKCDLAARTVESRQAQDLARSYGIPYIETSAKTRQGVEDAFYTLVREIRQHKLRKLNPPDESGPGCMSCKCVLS

## COc1ccc2nc3c(c(C)nn3[C@H]3CNC[C@@H](CO)O3)c(Cl)c2c1
GTPase HRas [1]
  inhibition: 0%

## COc1ccc2nc3c(c(C)nn3[C@H]3C=C[C@@H](COC(=O)c4ccccc4)O3)c(Cl)c2c1
GTPase HRas [2]
  IC50: 80 µM

## COc1ccc2nc3c(c(C)nn3[C@@H]3O[C@H](OC(O)CC(=O)c4ccccc4)[C@H]4OC(=S)O[C@H]43)c(Cl)c2c1 (stereo not given in full)
GTPase HRas [2]
  IC50: 1.5 µM

## COc1ccc2nc3c(c(C)nn3[C@@H]3O[C@H](COC(=O)c4ccccc4)[C@@H](OC(C)=O)[C@H]3OC(C)=O)c(Cl)c2c1
GTPase HRas [1]
  inhibition: 44%

## COc1ccc2nc3c(c(C)nn3[C@@H]3O[C@H](COC(=O)c4ccoc4)[C@@H](OC(=O)c4ccoc4)[C@H]3OC(=O)c3ccoc3)c(Cl)c2c1
GTPase HRas [1]
  inhibition: 49%

## COc1ccc2nc3c(c(C)nn3[C@H]3CN(Sc4ccccc4[N+](=O)[O-])C[C@@H](CO[Si](C)(C)C(C)(C)C)O3)c(Cl)c2c1
GTPase HRas [2]
  IC50: 1 µM

## COc1ccc2nc3c(c(C)nn3[C@@H]3O[C@H](COC(=O)c4ccc([N+](=O)[O-])cc4)[C@@H](OC(=O)c4ccc([N+](=O)[O-])cc4)[C@H]3OC(=O)c3ccc([N+](=O)[O-])cc3)c(Cl)c2c1
GTPase HRas [1]
  inhibition: 59%

## COc1ccc2nc3c(c(C)nn3[C@H]3CN(S(=O)(=O)c4ccc(NC(C)=O)cc4)C[C@@H](CO[Si](C)(C)C(C)(C)C)O3)c(Cl)c2c1
GTPase HRas [2]
  IC50: 27 µM

## CCOC(=O)/C=C/C[C@@H]1CN(Sc2ccc([N+](=O)[O-])cc2)C[C@H](n2nc(C)c3c(Cl)c4cc(OC)ccc4nc32)O1
GTPase HRas [1]
  inhibition: 64%

## COc1ccc2nc3c(c(C)nn3[C@H]3CN(S(=O)(=O)c4ccc([N+](=O)[O-])cc4)C[C@@H](C/C=C/C(=O)c4ccccc4)O3)c(Cl)c2c1
GTPase HRas [2]
  IC50: 7 µM

## COc1ccc2nc3c(c(C)nn3[C@@H]3O[C@H](COC(=O)c4ccccc4)[C@@H](OC(=O)c4ccccc4)[C@H]3OC(=O)c3ccccc3)c(Cl)c2c1
GTPase HRas [3]
  IC50: 10 µM

## COc1ccc2nc3c(c(C)nn3[C@H]3CN(Sc4ccccc4[N+](=O)[O-])C[C@@H](CO)O3)c(Cl)c2c1
GTPase HRas [2]
  IC50: 14 µM

## COc1ccc2nc3c(c(C)nn3[C@@H]3O[C@H](COC(=O)c4ccccc4)[C@H]4OC(=S)O[C@H]43)c(Cl)c2c1
GTPase HRas [2]
  IC50: 15 µM

## COc1ccc2nc3c(c(C)nn3[C@H]3C=C[C@@H](OCCC(=O)c4ccccc4)O3)c(Cl)c2c1
GTPase HRas [1]
  inhibition: 25%

## COc1ccc2nc3c(c(C)nn3[C@@H]3O[C@H](COC(C)=O)[C@@H](OC(C)=O)[C@H]3OC(C)=O)c(Cl)c2c1
GTPase HRas [1]
  inhibition: 3%

## COc1ccc(C(=O)OC[C@H]2O[C@@H](n3nc(C)c4c(Cl)c5cc(OC)ccc5nc43)[C@H](OC(=O)c3ccc(OC)cc3)[C@@H]2OC(=O)c2ccc(OC)cc2)cc1
GTPase HRas [1]
  inhibition: 44%

## COc1ccc2nc3c(c(C)nn3[C@H]3CN(S(=O)(=O)c4ccc([N+](=O)[O-])cc4)C[C@@H](CO)O3)c(Cl)c2c1
GTPase HRas [2]
  IC50: 8 µM

## COc1ccc2nc3c(c(C)nn3[C@@H]3O[C@H](COC(=O)Cc4ccccc4)[C@@H](OC(=O)Cc4ccccc4)[C@H]3OC(=O)Cc3ccccc3)c(Cl)c2c1
GTPase HRas [1]
  inhibition: 62%

## COc1ccc2nc3c(c(C)nn3[C@H]3CN(S(=O)(=O)c4ccccc4)C[C@@H](COC(=O)c4ccccc4)O3)c(Cl)c2c1
GTPase HRas [1]
  inhibition: 47%

## COc1ccc2nc3c(c(C)nn3[C@H]3C=C[C@@H](O/C=C/C(=O)c4ccccc4)O3)c(Cl)c2c1
GTPase HRas [2]
  IC50: 35 µM

## COc1ccc2nc3c(c(C)nn3[C@@H]3O[C@H](O/C=C/C(=O)c4ccccc4)[C@@H](O)[C@H]3O)c(Cl)c2c1
GTPase HRas [2]
  IC50: 10 µM

## COc1ccc2nc3c(c(C)nn3[C@@H]3O[C@H](COC(=O)c4ccccc4)[C@@H](OCc4ccccc4)[C@H]3OCc3ccccc3)c(Cl)c2c1
GTPase HRas [1]
  inhibition: 53%

## COc1ccc2nc3c(c(C)nn3[C@@H]3O[C@H](COC(=O)C(C)C)[C@@H](OC(=O)C(C)C)[C@H]3OC(=O)C(C)C)c(Cl)c2c1
GTPase HRas [1]
  inhibition: 33%

## COc1ccc2nc3c(c(C)nn3[C@H]3CN(S(=O)(=O)c4ccccc4)C[C@@H](CO[Si](C)(C)C(C)(C)C)O3)c(Cl)c2c1
GTPase HRas [2]
  IC50: 14 µM

## COc1ccc2nc3c(c(C)nn3[C@H]3CN(S(=O)(=O)c4ccccc4)C[C@@H](CO)O3)c(Cl)c2c1
GTPase HRas [2]
  IC50: 12 µM

## COc1ccc2nc3c(c(C)nn3[C@@H]3O[C@H](COC(=O)c4ccco4)[C@@H](OC(=O)c4ccco4)[C@H]3OC(=O)c3ccco3)c(Cl)c2c1
GTPase HRas [2]
  IC50: 10.5 µM

## COc1ccc2nc3c(c(C)nn3[C@@H]3O[C@H](COC(=O)c4cccnc4)[C@@H](OC(=O)c4cccnc4)[C@H]3OC(=O)c3cccnc3)c(Cl)c2c1
GTPase HRas [1]
  inhibition: 33%

## COc1ccc2nc3c(c(C)nn3[C@H]3CC[C@@H](COC(=O)c4ccccc4)O3)c(Cl)c2c1
GTPase HRas [1]
  inhibition: 38%

## COc1ccc2nc3c(c(C)nn3[C@H]3CN(Sc4ccc([N+](=O)[O-])cc4)C[C@@H](CO)O3)c(Cl)c2c1
GTPase HRas [2]
  IC50: 6.7 µM

## CCOC(=O)/C=C/C[C@@H]1CN(Sc2ccccc2[N+](=O)[O-])C[C@H](n2nc(C)c3c(Cl)c4cc(OC)ccc4nc32)O1
GTPase HRas [2]
  IC50: 16 µM

## COc1ccc2nc3c(c(C)nn3[C@H]3CN(Sc4ccc([N+](=O)[O-])cc4)C[C@@H](CO[Si](C)(C)C(C)(C)C)O3)c(Cl)c2c1
GTPase HRas [2]
  IC50: 50 µM

## COc1ccc2nc3c(c(C)nn3[C@H]3CN(Sc4ccc([N+](=O)[O-])cc4)C[C@@H](C/C=C/C(=O)c4ccccc4)O3)c(Cl)c2c1
GTPase HRas [2]
  IC50: 7.4 µM

## COc1ccc2nc3c(c(C)nn3[C@H]3CN(S(=O)(=O)c4ccc([N+](=O)[O-])cc4)C[C@@H](CO[Si](C)(C)C(C)(C)C)O3)c(Cl)c2c1
GTPase HRas [2]
  IC50: 5 µM

## COc1ccc2nc3c(c(C)nn3[C@@H]3O[C@H](OCc4ccccc4)[C@@H](OCc4ccccc4)[C@H]3OCc3ccccc3)c(Cl)c2c1
GTPase HRas [1]
  inhibition: 35%

## COc1ccc2nc3c(c(C)nn3[C@@H]3O[C@H](COC(=O)c4ccccc4)[C@@H](O)[C@H]3O)c(Cl)c2c1
GTPase HRas [1]
  inhibition: 16%

## COc1ccc2nc3c(c(C)nn3[C@H]3CN(Sc4ccc([N+](=O)[O-])cc4)C[C@@H](C/C=C/C(C)=O)O3)c(Cl)c2c1
GTPase HRas [2]
  IC50: 3 µM

## COc1ccc2nc3c(c(C)nn3[C@H]3C=C[C@@H](OC(O)CC(=O)c4ccccc4)O3)c(Cl)c2c1 (stereo not given in full)
GTPase HRas [1]
  inhibition: 48%

## COc1ccc2nc3c(c(C)nn3[C@H]3CN(Sc4ccccc4[N+](=O)[O-])C[C@@H](C/C=C/C(C)=O)O3)c(Cl)c2c1
GTPase HRas [1]
  inhibition: 88%

## COc1ccc2nc3c(c(C)nn3[C@H]3CN(Sc4ccccc4[N+](=O)[O-])C[C@@H](C/C=C/C(=O)c4ccccc4)O3)c(Cl)c2c1
GTPase HRas [2]
  IC50: 4.7 µM

## COc1ccc2nc3c(c(C)nn3[C@@H]3O[C@H](O/C=C/C(=O)c4ccccc4)[C@H]4OC(C)(C)O[C@H]43)c(Cl)c2c1
GTPase HRas [1]
  inhibition: 53%
